Source: PubChem BioAssay AID1963858 (Molecular Pharmacology Branch, DTP, NCI, 2024)

System: HOP-62 multicell spheroids with HUVEC/MSC, viability
Assay: Anticancer human tumor HOP-62 cell line growth inhibition [KRAS2];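 also: viability read after a week of compound exposure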;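 as to viability, T/C: 100% = DMSO vehicle-treated spheroids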
Conditions: for IC50: curve of first compound; for viability, T/C: stronger effect = lower value
Method in brief: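 Combination screen of spheroid viability in tumor-cell co-cultures with endothelial (HUVEC) and mesenchymal stem cell stroma. Each agent was tested in half-log dilutions, topping at clinical Cmax or at 10 microM without a known Cmax.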

[1] = second compound 0.1 µM, first compound 0.0316 µM
[2] = second compound 0.1 µM, first compound 0.1 µM
[3] = second compound 0.1 µM, first compound 0.316 µM
[4] = second compound 0.1 µM, first compound 1 µM
[5] = second compound 0.1 µM, first compound 3.16 µM
[6] = second compound 0.1 µM, first compound 10 µM
[7] = second compound 0.316 µM, first compound 0.0316 µM
[8] = second compound 0.316 µM, first compound 0.1 µM
[9] = second compound 0.316 µM, first compound 0.316 µM
[10] = second compound 0.316 µM, first compound 1 µM
[11] = second compound 0.316 µM, first compound 3.16 µM
[12] = second compound 0.316 µM, first compound 10 µM
[13] = second compound 1 µM, first compound 0.0316 µM
[14] = second compound 1 µM, first compound 0.1 µM
[15] = second compound 1 µM, first compound 0.316 µM
[16] = second compound 1 µM, first compound 1 µM
[17] = second compound 1 µM, first compound 3.16 µM
[18] = second compound 1 µM, first compound 10 µM
[19] = second compound 3.16 µM, first compound 0.0316 µM
[20] = second compound 3.16 µM, first compound 0.1 µM
[21] = second compound 3.16 µM, first compound 0.316 µM
[22] = second compound 3.16 µM, first compound 1 µM
[23] = second compound 3.16 µM, first compound 3.16 µM
[24] = second compound 3.16 µM, first compound 10 µM
[25] = second compound 10 µM, first compound 0.0316 µM
[26] = second compound 10 µM, first compound 0.1 µM
[27] = second compound 10 µM, first compound 0.316 µM
[28] = second compound 10 µM, first compound 1 µM
[29] = second compound 10 µM, first compound 3.16 µM
[30] = second compound 10 µM, first compound 10 µM

`CC(C)NCC(C(=O)N1CCN(c2ncnc3c2C(C)CC3O)CC1)c1ccc(Cl)cc1` (stereo not given) + CNCc1ccccc1-c1csc(C(C)Nc2nc(C)nc3cc(OC)c(OC)cc23)c1 was tested, and the IC50 (second compound 0.1 µM) was 844 nM, the IC50 (second compound 0.316 µM) was 608 nM and the IC50 (second compound 1 µM) was 212 nM. It also gave an IC50 (second compound 3.16 µM) of less than 31.6 nM, an IC50 (second compound 10 µM) of less than 31.6 nM and a viability, T/C [1] of 119%. The viability, T/C [2] was 83%, the viability, T/C [3] was 83.4% and the viability, T/C [4] was 45.9%. For the same molecule, the viability, T/C [5] was 17.2%, the viability, T/C [6] was 10.3% and the viability, T/C [7] was 89.5%. The viability, T/C [8] was 78.5%, the viability, T/C [9] was 73.7% and the viability, T/C [10] was 32.4%. It also gave a viability, T/C [11] of 13.4%, a viability, T/C [12] of 10.2% and a viability, T/C [13] of 81.3%. The viability, T/C [14] was 74.8%, the viability, T/C [15] was 35.6% and the viability, T/C [16] was 23.4%. The viability, T/C [17] was 16.9%, the viability, T/C [18] was 9.94% and the viability, T/C [19] was 0.41%. The viability, T/C [20] was 0.71%, the viability, T/C [21] was 0.27% and the viability, T/C [22] was 0.47%. It also gave a viability, T/C [23] of 0.17%, a viability, T/C [24] of 0.26% and a viability, T/C [25] of 0.24%. The viability, T/C [26] was 0.26%, the viability, T/C [27] was 0.26% and the viability, T/C [28] was 0.25%. It also gave a viability, T/C [29] of 0.23% and a viability, T/C [30] of 0.33%.
Molecule `CC1OCC2(CCN(c3cnc(Sc4ccnc(N)c4Cl)c(N)n3)CC2)C1N` (stereo not given) + COc1cc2nc(C)nc(NC(C)c3cc(N)cc(C(F)(F)F)c3)c2cc1OC1CCOC1 has an IC50 (second compound 0.1 µM) greater than 10000 nM, an IC50 (second compound 0.316 µM) greater than 10000 nM and an IC50 (second compound 1 µM) of 1220 nM. The IC50 (second compound 3.16 µM) was 510 nM, the IC50 (second compound 10 µM) was 51.9 nM and the viability, T/C [1] was 89.6%. For the same molecule, the viability, T/C [2] was 88.9%, the viability, T/C [3] was 79.8% and the viability, T/C [4] was 66%. It also gave a viability, T/C [5] of 59.5%, a viability, T/C [6] of 59.5% and a viability, T/C [7] of 98.4%. The viability, T/C [8] was 96.1%, the viability, T/C [9] was 76.2% and the viability, T/C [10] was 68.9%. The viability, T/C [11] was 55.5%, the viability, T/C [12] was 52.8% and the viability, T/C [13] was 99.4%. For the same molecule, the viability, T/C [14] was 77.9%, the viability, T/C [15] was 61.2% and the viability, T/C [16] was 53.6%. For the same molecule, the viability, T/C [17] was 41.8%, the viability, T/C [18] was 40.3% and the viability, T/C [19] was 82%. The viability, T/C [20] was 73.8%, the viability, T/C [21] was 59.4% and the viability, T/C [22] was 38.4%. For the same molecule, the viability, T/C [23] was 25.7%, the viability, T/C [24] was 31.1% and the viability, T/C [25] was 58%. The viability, T/C [26] was 40.1%, the viability, T/C [27] was 26.9% and the viability, T/C [28] was 23.7%. It also gave a viability, T/C [29] of 20.3% and a viability, T/C [30] of 18.6%.
Work on `Cn1nccc1Nc1nccc(-c2cc3c(s2)C(C)(C)N(CCN2CCOCC2)C3=O)n1` + COc1cc2nc(C)nc(NC(C)c3cc(N)cc(C(F)(F)F)c3)c2cc1OC1CCOC1 yielded an IC50 (second compound 0.1 µM) of 795 nM, an IC50 (second compound 0.316 µM) of 801 nM and an IC50 (second compound 1 µM) of 769 nM. For the same molecule, the IC50 (second compound 3.16 µM) was 389 nM, the IC50 (second compound 10 µM) was 189 nM and the viability, T/C [1] was 107%. It also gave a viability, T/C [2] of 103%, a viability, T/C [3] of 76.2% and a viability, T/C [4] of 44.8%. For the same molecule, the viability, T/C [5] was 25.2%, the viability, T/C [6] was 25.8% and the viability, T/C [7] was 106%. It also gave a viability, T/C [8] of 98.6%, a viability, T/C [9] of 77.9% and a viability, T/C [10] of 45%. The viability, T/C [11] was 20.6%, the viability, T/C [12] was 22.8% and the viability, T/C [13] was 101%. It also gave a viability, T/C [14] of 88.3%, a viability, T/C [15] of 67.9% and a viability, T/C [16] of 48%. For the same molecule, the viability, T/C [17] was 22.1%, the viability, T/C [18] was 20.9% and the viability, T/C [19] was 93.8%. For the same molecule, the viability, T/C [20] was 78.7%, the viability, T/C [21] was 54.2% and the viability, T/C [22] was 33.1%. The viability, T/C [23] was 22%, the viability, T/C [24] was 22.3% and the viability, T/C [25] was 66.7%. It also gave a viability, T/C [26] of 60.4%, a viability, T/C [27] of 41.6% and a viability, T/C [28] of 28.2%. For the same molecule, the viability, T/C [29] was 25.1% and the viability, T/C [30] was 24%.
